Values of other authors in patent US20200039732A1, “DEVICES FOR DISPENSING A HYDROFLUOROOLEFIN VAPOCOOLANT COMPOSITION AS AN AEROSOL” (GEBAUER COMPANY, priority 2016, published 2020).
Read-outs that look alike come from different tables or passages of the source.

Details: for Liquid Viscosity / Surface Tension: at 20° C.

Compound | Pvap (25° C.) | Pvap (80° C.) | Liquid Viscosity | Surface Tension
CC(C)C [Iso-Butane, isobutane] | 0.319 MPa | 1.5 MPa | 0.156 cP | 10.3 dyne/cm
FCC(F)(F)F [HFC-134a, 1,1,1,2-tetrafluoroethane] | 0.665 MPa | 2.63 MPa | 0.202 cP | 8.69 dyne/cm
F/C=C/C(F)(F)F [HFO-1234ze, trans-1,3,3,3-tetrafluoroprop-1-ene] | 0.484 MPa | 2.01 MPa | 0.489 cP | 13.3 dyne/cm
FC(F)(F)/C=C/Cl [HCFO-1233zd, trans-1-chloro-3,3,3-trifluoropropene] | 0.108 MPa | 0.650 MPa | 0.319 cP | 14.039 dyne/cm
FC(F)CC(F)(F)F [HFC-245fa, 1,1,1,3,3-pentafluoropropane] | 0.124 MPa | 0.789 MPa | 0.402 cP | 13.6 dyne/cm
CCCl [Ethyl Chloride, chloroethane] | 0.135 MPa | 0.745 MPa | 0.279 cP | 19.5 dyne/cm
